23 compounds from patent US10179790B2 (THOMAS HELLEDAYS STIFTELSE FOR MEDICINSK FORSKNING, priority 2014, dated 2019) can be followed below.

One assay addresses MTH1 (Homo sapiens, UniProt P36639). Description: MTH1 enzymatic assay and IC50 value determination (malachite green, 96- and 384-well format). The format is biochemical. The settings on record: hydrolysis of dGTP (100 μM), MTH1 6 nM, pyrophosphatase-coupled malachite green, 15 minutes at 22° C. The protocol: MTH1 Enzymatic Assay and IC50 Value Determination
MTH1 catalyzes the hydrolysis of dGTP to dGMP and PPi. By coupling the reaction to pyrophosphatase added in excess PPi is converted to Pi that can be detected by using the malachite green assay reagent. Two different formats were used for IC50 determinations in the enzymatic assay, 96- and 384-well format. 96-Well Method:
Briefly, the compound to be analyzed is diluted in DMSO in a 1:3 dilution series generating 12 different compound concentrations giving a final DMSO concentration of 1% in the assay well. MTH1 diluted in assay buffer (100 mM Tris-acetate, 40 mM NaCl, 10 mM magnesium acetate, 1 mM DTT and 0.005% Tween 20) fortified with E. coli pyrophosphatase (0.2 U/ml) is added to a final concentration of 6 nM. dGTP diluted in assay buffer is added to a final concentration of 100 μM. The reaction mixture is incubated for 15 minutes at 22° C. To 100 μl reaction mixture, 25 μl Malachite green assay regent (0.095% Malachite green in 17% H2SO4, 1.5% Ammonium molybdate, 0.17% Tween 20) is added, followed by incubation with shaking for 15 minutes at 22° C. The absorbance of the assay plate is read at 630 nm using a Hidex Sense Multilabel plate reader. The IC50 value is determined by fitting a dose response curve to the data points using nonlinear regression analysis and the equation Y=Bottom+(Top−Bottom)/(1+10^((Log IC50−X)*HillSlope)), where Y is the read absorbance at 630 nm and X is log [compound].
The compounds to be tested are nano-dispensed, in 11 concentrations, directly in assay plates, with a final DMSO concentration <1%. The protocol and the reaction mixture are the same as for the 96-well assay, with a total reaction volume of 50 μl/well to which 10 μl of Malachite green reagent is added. All additions to the assay plates are made with multidrop.

The next assay relates to cancer cell. Description: Cell viability assay (resazurin). It is filed as cell-based. The settings on record: 72 h; 3 days with compound, resazurin fluorescence; cell line not named. How it is done:
The utility of the compounds of the present invention can be illustrated, for example, by their activity in vitro in the cancer cell clonogenic and/or viability assay described below. The link between activity in tumor cell clonogenic assay and anti-tumor activity in the clinical setting has been well established in the art (e.g. see ref Silverstini et al Stem Cells 1993, 11(6), 258-35).
Cells are seeded into 96 well plates (1000-3000 cells/well) in DMEM GlutaMAX™ or other suitable media dependent on cell line and incubated overnight in 5% CO2, 37° C. Thereafter cells are treated with compound or vehicle and left in incubator for 3 days until staining with resazurin. Cells are incubated in resazurin (diluted in suitable media) at 37° C. for 2 hours before measuring the fluorescence (Ex544/Em590).
The compounds to be tested are nano-dispensed in 11 concentrations, directly in 384-well cell plates, with a final DMSO concentration <1%. Cells are seeded in cell plates, pre-dispensed with compounds, 50 μl/well (600-1200 cells/well). After 3 days culture in 5% CO2, 37° C., resazurin diluted in PBS is added, 10 μl/well, and cells are incubated 3 hours before measuring fluorescence (Ex544/Em590).

Each structure is given as a SMILES string.

Regarding `Cc1cccc(-c2cc(NCCCNc3ccc(S(N)(=O)=O)cn3)nc(N)n2)c1C` [Example 2, 6-[(3-{[2-amino-6-(2,3-dimethylphenyl)pyrimidin-4-yl]amino}propyl)amino]pyridine-3-sulfonamide], the half-maximal inhibitory concentration (IC50) (as a rule, the point on the concentration scale where inhibition reaches its midpoint) at MTH1 was less than 200 nM; in the assay on cancer cell it was less than 500 nM.
`CNS(=O)(=O)c1ccc(NCCNc2cc(-c3cccc(C)c3C)nc(N)n2)nc1` [Example 3, 6-[(2-{[2-amino-6-(2,3-dimethylphenyl)pyrimidin-4-yl]amino}ethyl)amino]-N-methylpyridine-3-sulfonamide]: the values for the IC50 on MTH1 and with cancer cell were less than 200 nM and less than 500 nM, respectively.
Take `Cc1cccc(-c2cc(NCCNc3ccc(S(C)(=O)=O)nc3)nc(N)n2)c1C` [Example 13, 6-(2,3-dimethylphenyl)-4-N-{2-[(6-methanesulfonylpyridin-3-yl)amino]ethyl}pyrimidine-2,4-diamine]: the figures for the IC50 on MTH1 and in the assay on cancer cell were less than 200 nM and less than 500 nM, respectively.
Regarding `Cc1cccc(-c2cc(NCCNc3nccc(C(N)=O)n3)nc(N)n2)c1C` [Example 16, 2-[(2-{[2-amino-6-(2,3-dimethylphenyl)pyrimidin-4-yl]amino}ethyl)amino]pyrimidine-4-carboxamide], the IC50 against MTH1 was less than 200 nM; with cancer cell, less than 500 nM.
With `CC(=O)Nc1ccc(CCNc2cc(-c3cccc(C)c3C)nc(N)n2)cc1` [Example 19, N-[4-(2-{[2-amino-6-(2,3-dimethylphenyl)pyrimidin-4-yl]amino}ethyl)phenyl]acetamide], the IC50 at MTH1 is less than 200 nM; in the assay on cancer cell, less than 500 nM.
For `Cc1cccc(-c2cc(NCCc3ccc(NS(C)(=O)=O)cc3)nc(N)n2)c1C` [Example 20, N-[4-(2-{[2-amino-6-(2,3-dimethylphenyl)pyrimidin-4-yl]amino}ethyl)phenyl]methanesulfonamide], the half-inhibitory concentration (IC50) is less than 200 nM at MTH1 and less than 500 nM with cancer cell.
As to `CNS(=O)(=O)c1ccc(NCCNc2cc(-c3cccc(C)c3C)nc(N)n2)cc1` [Example 21, 4-[(2-{[2-amino-6-(2,3-dimethylphenyl)pyrimidin-4-yl]amino}ethyl)amino]-N-methylbenzene-1-sulfonamide], the IC50 against MTH1 is less than 200 nM; in the assay on cancer cell it was less than 500 nM.
For `CC(=O)Nc1ccc(NCCNc2cc(-c3cccc(C)c3C)nc(N)n2)cc1C` [Example 22, N-{4-[(2-{[2-amino-6-(2,3-dimethylphenyl)pyrimidin-4-yl]amino}ethyl)amino]-2-methylphenyl}acetamide], the IC50 on MTH1 was less than 200 nM; with cancer cell, less than 500 nM.
`Cc1cccc(-c2cc(NCCNc3ccc4c(c3)NC(=O)CO4)nc(N)n2)c1C` [Example 23, 6-[(2-{[2-amino-6-(2,3-dimethylphenyl)pyrimidin-4-yl]amino}ethyl)amino]-3,4-dihydro-2H-1,4-benzoxazin-3-one]: the results for the IC50 at MTH1 and in the assay with cancer cell were less than 200 nM and less than 500 nM, respectively.
As to `Cc1cccc(-c2cc(NCCNc3ccccc3C(N)=O)nc(N)n2)c1C` [Example 24, 2-[(2-{[2-amino-6-(2,3-dimethylphenyl)pyrimidin-4-yl]amino}ethyl)amino]benzamide], the IC50 is less than 200 nM against MTH1 and less than 500 nM in the assay with cancer cell.
On the same counts, the results for `Cc1cccc(-c2cc(NCCOc3ccc(C(N)=O)cn3)nc(N)n2)c1C` [Example 26, 6-(2-{[2-amino-6-(2,3-dimethylphenyl)pyrimidin-4-yl]amino}ethoxy)pyridine-3-carboxamide] are less than 200 nM and less than 500 nM.
In the case of `CCOC(=O)c1ccc(NCCNc2cc(-c3cccc(C)c3C)nc(N)n2)nc1` [Example 28, ethyl 6-[(2-{[2-amino-6-(2,3-dimethylphenyl)pyrimidin-4-yl]amino}ethyl)amino]pyridine-3-carboxylate], the half-maximal inhibitory concentration (IC50) against MTH1 was less than 200 nM; in the assay on cancer cell, less than 500 nM.
As to `Cc1cccc(-c2cc(NCCNc3ccc(S(N)(=O)=O)c(C(F)(F)F)c3)nc(N)n2)c1C` [Example 29, 4-[(2-{[2-amino-6-(2,3-dimethylphenyl)pyrimidin-4-yl]amino}ethyl)amino]-2-(trifluoromethyl)benzene-1-sulfonamide], the half-maximal inhibitory concentration (IC50) against MTH1 was less than 200 nM; with cancer cell, less than 500 nM.
Take `Cc1cccc(-c2cc(NCCNc3ccc(C(N)=O)cc3)nc(N)n2)c1C` [Example 30, 4-[(2-{[2-amino-6-(2,3-dimethylphenyl)pyrimidin-4-yl]amino}ethyl)amino]benzamide]: the IC50 on MTH1 was less than 200 nM; in the assay on cancer cell, less than 500 nM.
Turning to `CCOC(=O)Nc1ccc(CCNc2cc(-c3cccc(C)c3C)nc(N)n2)cc1` [Example 31, ethyl N-[4-(2-{[2-amino-6-(2,3-dimethylphenyl)pyrimidin-4-yl]amino}ethyl)phenyl]carbamate], the IC50 against MTH1 is less than 200 nM; with cancer cell it was less than 500 nM.
As to `COc1ccc(NCCNc2cc(-c3cccc(C)c3C)nc(N)n2)cc1S(N)(=O)=O` [Example 32, 5-[(2-{[2-amino-6-(2,3-dimethylphenyl)pyrimidin-4-yl]amino}ethyl)amino]-2-methoxybenzene-1-sulfonamide], the IC50 was less than 200 nM against MTH1 and less than 500 nM in the assay on cancer cell.
In the case of `Cc1c(Cl)cccc1-c1cc(NCCNc2ccc3c(c2)NC(=O)CO3)nc(N)n1` [Example 35, 6-[(2-{[2-amino-6-(3-chloro-2-methylphenyl)pyrimidin-4-yl]amino}ethyl)amino]-3,4-dihydro-2H-1,4-benzoxazin-3-one], the results for the IC50 against MTH1 and with cancer cell were less than 200 nM and less than 500 nM, respectively.
In the case of `Cc1nc2ccc(NCCNc3cc(-c4cccc(C)c4C)nc(N)n3)cc2s1` [Example 36, 6-(2,3-dimethylphenyl)-4-N-{2-[(2-methyl-1,3-benzothiazol-6-yl)amino]ethyl}pyrimidine-2,4-diamine], the figures for the IC50 against MTH1 and in the assay with cancer cell were less than 200 nM and less than 500 nM, respectively.
On the same counts, the results for `Nc1nc(NCCNc2ccc3c(c2)NC(=O)CO3)cc(-c2cccc(Cl)c2Cl)n1` [Example 38, 6-[(2-{[2-amino-6-(2,3-dichlorophenyl)pyrimidin-4-yl]amino}ethyl)amino]-3,4-dihydro-2H-1,4-benzoxazin-3-one] are less than 200 nM and less than 500 nM.
Consider `Cc1nc2ccc(NCCNc3cc(-c4cccc(Cl)c4Cl)nc(N)n3)cc2s1` [Example 39, 6-(2,3-dichlorophenyl)-4-N-{2-[(2-methyl-1,3-benzothiazol-6-yl)amino]ethyl}pyrimidine-2,4-diamine], for which the 50% inhibitory concentration (IC50) against MTH1 was less than 200 nM; with cancer cell, less than 500 nM.
Regarding `Cc1cccc(-c2cc(NCCNc3cccc(S(C)(=O)=O)c3)nc(N)n2)c1C` [Example 40, 6-(2,3-dimethylphenyl)-4-N-{2-[(3-methanesulfonylphenyl)amino]ethyl}pyrimidine-2,4-diamine], the results for the IC50 on MTH1 and in the assay on cancer cell were less than 200 nM and less than 500 nM, respectively.
On the same counts, the results for `Cc1cccc(-c2cc(NCCNc3ccc(S(N)(=O)=O)cc3F)nc(N)n2)c1C` [Example 42, 4-[(2-{[2-amino-6-(2,3-dimethylphenyl)pyrimidin-4-yl]amino}ethyl)amino]-3-fluorobenzene-1-sulfonamide] are less than 200 nM and less than 500 nM.
As for `Cc1c(Cl)cccc1-c1cc(NCCc2ccc(C(N)=O)cc2)nc(N)n1` [Example 43, 4-(2-{[2-amino-6-(3-chloro-2-methylphenyl)pyrimidin-4-yl]amino}ethyl)benzamide], the values for the IC50 at MTH1 and in the assay with cancer cell were less than 200 nM and less than 500 nM, respectively.
